Data published in paper PMC5218480 (PLoS ONE, 2017).

System: MV-4-11 cells
Assay: Gene expression microarray analysis (Affymetrix PrimeView) and GSEA
Assay type: cell-based, human
Design: RFU PODN (11730768_x_at) / Fold change /veh PODN (11730768_x_at) / RFU LINC00158 (11744669_a_at) / Fold change /veh LINC00158 (11744669_a_at) / RFU DUSP10 (11751237_a_at) / Fold change /veh DUSP10 (11751237_a_at) / RFU ID3 (11757404_x_at) / Fold change /veh ID3 (11757404_x_at) / RFU PLEKHG5 (11737974_s_at) / Fold change /veh PLEKHG5 (11737974_s_at) / RFU LRRC4B (11730491_at) / Fold change /veh LRRC4B (11730491_at) / RFU GIMAP4 (11747438_a_at) / Fold change /veh GIMAP4 (11747438_a_at) / RFU KRT8 (11758183_x_at) / Fold change /veh KRT8 (11758183_x_at) / RFU CNN1 (11734310_a_at) / Fold change /veh CNN1 (11734310_a_at) / RFU VPS37D (11726825_at) / Fold change /veh VPS37D (11726825_at) / RFU C10orf10 (11716522_x_at) / Fold change /veh C10orf10 (11716522_x_at) / RFU KIR2DL2 /// KIR2DL4 /// KIR2DL5A /// KIR2DL5B /// KIR2DS1 /// KIR2DS2 /// KIR2DS3 /// KIR2DS4 /// KIR3DL3 /// KIR3DL3 /// KIR3DS1 (11738374_at) / Fold change /veh KIR2DL2 /// KIR2DL4 /// KIR2DL5A /// KIR2DL5B /// KIR2DS1 /// KIR2DS2 /// KIR2DS3 /// KIR2DS4 /// KIR3DL3 /// KIR3DL3 /// KIR3DS1 (11738374_at) / RFU C1QL1 (11718748_at) / Fold change /veh C1QL1 (11718748_at) / RFU TMPRSS4 (11747572_a_at) / Fold change /veh TMPRSS4 (11747572_a_at) / RFU HAMP (11756126_x_at) / Fold change /veh HAMP (11756126_x_at) / RFU RNFT2 (11725882_a_at) / Fold change /veh RNFT2 (11725882_a_at) / RFU NR4A2 (11747474_a_at) / Fold change /veh NR4A2 (11747474_a_at) / RFU ABCC12 (11746883_a_at) / Fold change /veh ABCC12 (11746883_a_at) / RFU TMEM136 (11760407_x_at) / Fold change /veh TMEM136 (11760407_x_at) / RFU CLDN22 /// WWC2 (11732394_at) / Fold change /veh CLDN22 /// WWC2 (11732394_at) / RFU HLA-DPB1 (11760878_x_at) / Fold change /veh HLA-DPB1 (11760878_x_at) / RFU SPINT1 (11716480_a_at) / Fold change /veh SPINT1 (11716480_a_at) / RFU GAP43 (11754022_s_at) / Fold change /veh GAP43 (11754022_s_at) / RFU A4GNT (11735810_at) / Fold change /veh A4GNT (11735810_at) / RFU PRB3 (11715151_x_at) / Fold change /veh PRB3 (11715151_x_at) / RFU TUBB4B (11761932_at) / Fold change /veh TUBB4B (11761932_at) / RFU CAPN14 (11732068_a_at) / Fold change /veh CAPN14 (11732068_a_at) / RFU TMCC2 (11721928_a_at) / Fold change /veh TMCC2 (11721928_a_at) / RFU IRGQ (11745062_a_at) / Fold change /veh IRGQ (11745062_a_at) / RFU FAM174B (11720279_a_at) / Fold change /veh FAM174B (11720279_a_at) / RFU TMPRSS4 (11748680_a_at) / Fold change /veh TMPRSS4 (11748680_a_at) / RFU FAM212B (11763350_a_at) / Fold change /veh FAM212B (11763350_a_at) / RFU PLEKHG5 (11743358_a_at) / Fold change /veh PLEKHG5 (11743358_a_at) / RFU ZSCAN30 (11745921_a_at) / Fold change /veh ZSCAN30 (11745921_a_at) / RFU CMKLR1 (11741424_a_at) / Fold change /veh CMKLR1 (11741424_a_at) / RFU LOC101060620 /// MAPK8IP1 (11723275_at) / Fold change /veh LOC101060620 /// MAPK8IP1 (11723275_at) / RFU SPTSSB (11747773_x_at) / Fold change /veh SPTSSB (11747773_x_at) / RFU PRSS12 (11739890_at) / Fold change /veh PRSS12 (11739890_at) / RFU BIN1 (11741810_x_at) / Fold change /veh BIN1 (11741810_x_at) / RFU WNT11 (11732464_a_at) / Fold change /veh WNT11 (11732464_a_at) / RFU C10orf10 (11716521_a_at) / Fold change /veh C10orf10 (11716521_a_at) / RFU C5orf56 (11738089_at) / Fold change /veh C5orf56 (11738089_at) / RFU CYB561 (11721691_x_at) / Fold change /veh CYB561 (11721691_x_at) / RFU ANKRD19P (11752326_a_at) / Fold change /veh ANKRD19P (11752326_a_at) / RFU OR2T12 /// OR2T33 /// OR2T8 (11738714_s_at) / Fold change /veh OR2T12 /// OR2T33 /// OR2T8 (11738714_s_at) / RFU VCAN (11748164_a_at) / Fold change /veh VCAN (11748164_a_at) / RFU JSRP1 (11732532_at) / Fold change /veh JSRP1 (11732532_at) / RFU KRTAP10-11 (11738290_x_at) / Fold change /veh KRTAP10-11 (11738290_x_at) / RFU MYO3A (11730013_a_at) / Fold change /veh MYO3A (11730013_a_at) / RFU EBF3 (11725865_a_at) / Fold change /veh EBF3 (11725865_a_at) / RFU CAMK2N1 (11719241_x_at) / Fold change /veh CAMK2N1 (11719241_x_at) / RFU C5orf56 (11738088_a_at) / Fold change /veh C5orf56 (11738088_a_at) / RFU OLFML3 (11715873_a_at) / Fold change /veh OLFML3 (11715873_a_at) / RFU LOC100653217 /// NTM (11731650_a_at) / Fold change /veh LOC100653217 /// NTM (11731650_a_at) / RFU MAPK11 (11762145_a_at) / Fold change /veh MAPK11 (11762145_a_at) / RFU FIZ1 (11724087_x_at) / Fold change /veh FIZ1 (11724087_x_at) / RFU OASL (11726364_x_at) / Fold change /veh OASL (11726364_x_at) / RFU SOX15 (11748057_x_at) / Fold change /veh SOX15 (11748057_x_at) / RFU CD79A (11719716_a_at) / Fold change /veh CD79A (11719716_a_at) / RFU HIST1H1D (11736915_at) / Fold change /veh HIST1H1D (11736915_at) / RFU CASKIN2 (11723855_a_at) / Fold change /veh CASKIN2 (11723855_a_at) / RFU LOC730098 (11760151_x_at) / Fold change /veh LOC730098 (11760151_x_at) / RFU OR4N2 (11742367_at) / Fold change /veh OR4N2 (11742367_at) / RFU PRRT2 (11749266_a_at) / Fold change /veh PRRT2 (11749266_a_at) / RFU SNX32 (11753110_a_at) / Fold change /veh SNX32 (11753110_a_at) / RFU CDHR5 (11726645_a_at) / Fold change /veh CDHR5 (11726645_a_at) / RFU RCAN1 (11760418_a_at) / Fold change /veh RCAN1 (11760418_a_at) / RFU FAM167A (11723789_a_at) / Fold change /veh FAM167A (11723789_a_at) / RFU FAM26E (11764081_at) / Fold change /veh FAM26E (11764081_at) / RFU ISYNA1 (11749810_s_at) / Fold change /veh ISYNA1 (11749810_s_at) / RFU ACY1 (11761880_at) / Fold change /veh ACY1 (11761880_at) / RFU 11764098_at / Fold change /veh 11764098_at / RFU SAMD14 (11745864_x_at) / Fold change /veh SAMD14 (11745864_x_at) / RFU NPB (11741838_a_at) / Fold change /veh NPB (11741838_a_at) / RFU TMPRSS6 (11731388_a_at) / Fold change /veh TMPRSS6 (11731388_a_at) / RFU KRTAP10-2 (11738614_at) / Fold change /veh KRTAP10-2 (11738614_at) / RFU ARHGAP8 /// PRR5-ARHGAP8 (11727945_x_at) / Fold change /veh ARHGAP8 /// PRR5-ARHGAP8 (11727945_x_at) / RFU KRTAP5-7 /// NADSYN1 (11734609_at) / Fold change /veh KRTAP5-7 /// NADSYN1 (11734609_at) / RFU RASL12 (11751679_a_at) / Fold change /veh RASL12 (11751679_a_at) / RFU CDKN2B (11736163_a_at) / Fold change /veh CDKN2B (11736163_a_at) / RFU PRF1 (11729649_at) / Fold change /veh PRF1 (11729649_at) / RFU, ZNF638 /// ZNF638-IT1 / Fold change vs veh, ZNF638 /// ZNF638-IT1 / RFU, PANK3 / Fold change vs veh, PANK3 / RFU, SH3YL1 / Fold change vs veh, SH3YL1 / RFU, ZEB2 / Fold change vs veh, ZEB2 / RFU, NRIP1 / Fold change vs veh, NRIP1 / RFU, PTTG1IP / Fold change vs veh, PTTG1IP / RFU, CAPN2 / Fold change vs veh, CAPN2 / RFU, MED14 / Fold change vs veh, MED14 / RFU, SNORA58 / Fold change vs veh, SNORA58 / RFU, C1orf63 / Fold change vs veh, C1orf63 / RFU, LRRFIP1 / Fold change vs veh, LRRFIP1 / RFU, NDUFAF7 / Fold change vs veh, NDUFAF7 / RFU, SLC12A2 / Fold change vs veh, SLC12A2 / RFU, IBTK / Fold change vs veh, IBTK / RFU, ESF1 / Fold change vs veh, ESF1 / Fold change vs veh, TMEM50B / RFU, TAOK1 / Fold change vs veh, TAOK1 / RFU, ACBD3 / Fold change vs veh, ACBD3 / RFU, TMA16 / Fold change vs veh, TMA16 / RFU, RWDD3 / Fold change vs veh, RWDD3 / RFU, BCAT1 / Fold change vs veh, BCAT1 / RFU, EDEM3 / Fold change vs veh, EDEM3 / RFU, TMEM33 / Fold change vs veh, TMEM33 / RFU, WDR75 / Fold change vs veh, WDR75 / RFU, AHCTF1 / Fold change vs veh, AHCTF1 / RFU, TFRC / Fold change vs veh, TFRC / RFU, ZDHHC17 / Fold change vs veh, ZDHHC17 / RFU, NOM1 / Fold change vs veh, NOM1 / RFU, ARL8B / Fold change vs veh, ARL8B / RFU, ZBTB11 / Fold change vs veh, ZBTB11 / RFU, TAMM41 / Fold change vs veh, TAMM41 / RFU, KIAA1704 /// LOC100996395 / Fold change vs veh, KIAA1704 /// LOC100996395 / RFU, ING1 / Fold change vs veh, ING1 / RFU, TRMT61B / Fold change vs veh, TRMT61B / RFU, FUBP3 / Fold change vs veh, FUBP3 / RFU, TP53 / Fold change vs veh, TP53 / RFU, TNKS2 / Fold change vs veh, TNKS2 / RFU, ZFP14 / Fold change vs veh, ZFP14 / RFU, ACTR2 / Fold change vs veh, ACTR2 / RFU, PPP3R1 / Fold change vs veh, PPP3R1 / RFU, PIK3R1 / Fold change vs veh, PIK3R1 / RFU, HNRNPA1 / Fold change vs veh, HNRNPA1 / RFU, RNF170 / Fold change vs veh, RNF170 / RFU, ZNF28 / Fold change vs veh, ZNF28 / RFU, RNGTT / Fold change vs veh, RNGTT / RFU, OGT / Fold change vs veh, OGT / RFU, BRD1 / Fold change vs veh, BRD1 / RFU, MARS / Fold change vs veh, MARS / RFU, ZNF655 / Fold change vs veh, ZNF655 / RFU, FAHD1 / Fold change vs veh, FAHD1 / RFU, BDP1 / Fold change vs veh, BDP1 / RFU, LRRCC1 / Fold change vs veh, LRRCC1 / RFU, ARID1A / Fold change vs veh, ARID1A / RFU, ZNF146 / Fold change vs veh, ZNF146 / RFU, ZNF330 / Fold change vs veh, ZNF330 / RFU, GPN3 / Fold change vs veh, GPN3 / RFU, C9orf123 / Fold change vs veh, C9orf123 / RFU, N4BP2L2 / Fold change vs veh, N4BP2L2 / RFU, ARFIP1 / Fold change vs veh, ARFIP1 / RFU, FAM179B / Fold change vs veh, FAM179B / RFU, BCL10 / Fold change vs veh, BCL10 / RFU, UHRF1BP1L / Fold change vs veh, UHRF1BP1L / RFU, BET1 / Fold change vs veh, BET1 / RFU, CNOT2 / Fold change vs veh, CNOT2 / RFU, ZNF268 / Fold change vs veh, ZNF268 / Fold change vs veh, ZNF507 / RFU, DGCR2 / Fold change vs veh, DGCR2 / RFU, WDSUB1 / Fold change vs veh, WDSUB1 / Fold change vs veh, HSP90B1 /// MIR3652 / RFU, ADSS / Fold change vs veh, ADSS / RFU, GK / Fold change vs veh, GK / RFU, ZNF148 / Fold change vs veh, ZNF148 / RFU, TAF9 / Fold change vs veh, TAF9 / RFU, SLC1A5 / Fold change vs veh, SLC1A5 / RFU, SLMO2 / Fold change vs veh, SLMO2 / RFU, ABCC4 / Fold change vs veh, ABCC4 / RFU, LOC101060439 /// RAP1B / Fold change vs veh, LOC101060439 /// RAP1B / RFU, RFX7 / Fold change vs veh, RFX7 / RFU, GTPBP10 / Fold change vs veh, GTPBP10 / RFU, CNEP1R1 / Fold change vs veh, CNEP1R1 / RFU, BIVM-ERCC5 /// ERCC5 / Fold change vs veh, BIVM-ERCC5 /// ERCC5 / RFU, ILF3 / Fold change vs veh, ILF3 / RFU 11762660_at / Fold change /veh 11762660_at / RFU VCAN (11757783_s_at) / Fold change /veh VCAN (11757783_s_at) / RFU DDX43 (11728927_at) / Fold change /veh DDX43 (11728927_at) / RFU KRT8 (11758188_x_at) / Fold change /veh KRT8 (11758188_x_at) / RFU NKD1 (11759106_at) / Fold change /veh NKD1 (11759106_at) / RFU SRD5A1 (11742802_a_at) / Fold change /veh SRD5A1 (11742802_a_at) / RFU TPSAB1 /// TPSB2 (11721975_s_at) / Fold change /veh TPSAB1 /// TPSB2 (11721975_s_at) / RFU GSTM3 (11746129_a_at) / Fold change /veh GSTM3 (11746129_a_at) / RFU IL23R (11737362_x_at) / Fold change /veh IL23R (11737362_x_at) / RFU TMEM51 (11727254_a_at) / Fold change /veh TMEM51 (11727254_a_at) / RFU PIWIL2 (11732686_x_at) / Fold change /veh PIWIL2 (11732686_x_at) / RFU ORM1 (11744905_x_at) / Fold change /veh ORM1 (11744905_x_at) / RFU CCDC152 (11743942_at) / Fold change /veh CCDC152 (11743942_at) / RFU ECM1 (11717891_a_at) / Fold change /veh ECM1 (11717891_a_at) / RFU IL23R (11748794_a_at) / Fold change /veh IL23R (11748794_a_at) / RFU TNFAIP8L3 (11732012_x_at) / Fold change /veh TNFAIP8L3 (11732012_x_at) / RFU MBOAT4 (11741988_at) / Fold change /veh MBOAT4 (11741988_at) / RFU 11764193_at / Fold change /veh 11764193_at / RFU TMEM53 (11763286_at) / Fold change /veh TMEM53 (11763286_at) / RFU MAGEB2 (11727129_at) / Fold change /veh MAGEB2 (11727129_at) / RFU TMEM200A (11744735_a_at) / Fold change /veh TMEM200A (11744735_a_at) / RFU CCDC152 (11751479_a_at) / Fold change /veh CCDC152 (11751479_a_at) / RFU FAM211A (11726209_a_at) / Fold change /veh FAM211A (11726209_a_at) / RFU RGS16 (11746705_a_at) / Fold change /veh RGS16 (11746705_a_at) / RFU VCAN (11755009_s_at) / Fold change /veh VCAN (11755009_s_at) / RFU RHOB (11743442_s_at) / Fold change /veh RHOB (11743442_s_at) / RFU RGS16 (11720943_a_at) / Fold change /veh RGS16 (11720943_a_at) / RFU RGS16 (11720944_at) / Fold change /veh RGS16 (11720944_at) / RFU, VPS4B / Fold change vs veh, VPS4B / RFU, CREB1 / Fold change vs veh, CREB1 / RFU, DNAJC13 / Fold change vs veh, DNAJC13 / RFU, GNAQ / Fold change vs veh, GNAQ / RFU, CDK5R1 / Fold change vs veh, CDK5R1 / RFU, ZRANB3 / Fold change vs veh, ZRANB3 / RFU, CUL4A / Fold change vs veh, CUL4A / RFU, CCNY / Fold change vs veh, CCNY / RFU, UFL1 / Fold change vs veh, UFL1 / RFU, COG3 / Fold change vs veh, COG3 / RFU, DIAPH2 / Fold change vs veh, DIAPH2 / RFU, SKA2 / Fold change vs veh, SKA2 / RFU, AFF3 / Fold change vs veh, AFF3 / RFU, LMF1 / Fold change vs veh, LMF1 / RFU, IPO11 / Fold change vs veh, IPO11 / RFU, DFFB / Fold change vs veh, DFFB / RFU, FOXP1 / Fold change vs veh, FOXP1 / RFU, CARD8 / Fold change vs veh, CARD8 / RFU, STRN3 / Fold change vs veh, STRN3 / RFU, ADK / Fold change vs veh, ADK / RFU, RASSF2 / Fold change vs veh, RASSF2 / RFU, WIPF1 / Fold change vs veh, WIPF1 / RFU, LARP1B / Fold change vs veh, LARP1B / RFU, RASA1 / Fold change vs veh, RASA1 / RFU, RB1 / Fold change vs veh, RB1 / RFU, PPFIA1 / Fold change vs veh, PPFIA1 / RFU, MAT2A / Fold change vs veh, MAT2A / RFU, CCT5 / Fold change vs veh, CCT5 / RFU, WDR92 / Fold change vs veh, WDR92 / RFU, CUX1 / Fold change vs veh, CUX1 / RFU, TTC7A / Fold change vs veh, TTC7A / RFU, TMEM135 / Fold change vs veh, TMEM135 / RFU, DEPTOR / Fold change vs veh, DEPTOR / RFU, CPM / Fold change vs veh, CPM / RFU, DNAJB6 / Fold change vs veh, DNAJB6 / RFU, CACNA2D3 / Fold change vs veh, CACNA2D3 / RFU, DTX4 / Fold change vs veh, DTX4 / RFU, TFCP2 / Fold change vs veh, TFCP2 / RFU, GMCL1 /// GMCL1P1 / Fold change vs veh, GMCL1 /// GMCL1P1 / RFU, AEBP2 / Fold change vs veh, AEBP2 / RFU, SNHG1 /// SNORD22 /// SNORD25 /// SNORD26 /// SNORD27 /// SNORD28 /// SNORD29 /// SNORD31 / Fold change vs veh, SNHG1 /// SNORD22 /// SNORD25 /// SNORD26 /// SNORD27 /// SNORD28 /// SNORD29 /// SNORD31 / Fold change (Aza/veh), C12orf56 (ProbeSet 11735607_a_at) / Fold change (ACY-1035/veh), C12orf56 (ProbeSet 11735607_a_at) / Fold change (Aza/veh), FGFR1OP (ProbeSet 11751329_s_at) / Fold change (ACY-1035/veh), FGFR1OP (ProbeSet 11751329_s_at) / Fold change (Aza/veh), VPS36 (ProbeSet 11739960_a_at) / Fold change (ACY-1035/veh), VPS36 (ProbeSet 11739960_a_at) / RFU SYPL1 (11715823_x_at) / Fold change /veh SYPL1 (11715823_x_at) / RFU IGFBP7 (11715501_s_at) / Fold change /veh IGFBP7 (11715501_s_at) / RFU REEP3 (11722064_at) / Fold change /veh REEP3 (11722064_at) / RFU IGLL1 (11728026_x_at) / Fold change /veh IGLL1 (11728026_x_at): dose or concentration left out as unconfirmed
Settings: ProbeSet 11748670_a_at; LIST B

## Nc1ncn([C@@H]2O[C@H](CO)[C@@H](O)[C@H]2O)c(=O)n1 [azacitidine]
  Fold change vs veh, PIK3R1: 1.03
